This note sets out measurements from US10519504B2, “Methods for treatment of oncological disorders using epimetabolic shifters, multidimensional intracellular molecules, or environmental influencers” (Berg LLC, priority 2009, dated 2019).

Experiment [1] has as its system Pancreatic Cancer Cells (PaCa2). The experiment in a line: Real-time PCR Apoptosis Array. It is filed as cell-based. How it is done:
Experiments were carried out essentially as described above.
Background: In qPCR the cycle at which signal appears reflects the starting amount.

Experiment [2] relates to ATP Citrate Lyase (ACL). In words: Western blot, ATP Citrate Lyase levels. It is filed as cell-based, human. Particulars: for ATP Citrate Lysase Normalized Intensity as % of control: glucose 5g, 48 h. How it is done: The whole cell pellets were resuspended one at a time in 1 mL of C7 buffer and transferred to labeled 15 mL tubes. The samples were then sonicated in the cold room on ice using 6 sonic pulses with the setting at #14. The samples were spun for a short time to 2500 g after sonication and the samples transferred to 2 ml tubes. The pH was verified of each sample (pH should be 9.0) using the foam remaining in the […] sample tubes.
After transfer each of the blots was placed in between 2 Whatman Filter papers and dried for 15-20 minutes. After drying the blots were labeled with the date, the type of samples and either blot 1 or blot 2 using a HB pencil. The molecular weight markers were outlined with the pencil and with single lines for the blue and a doublet for the colored markers. The blots were activated with methanol for 5 seconds, washed with water for 5 minutes, and TBST for 15 minutes. The blots were blocked for 1 hour with 5% blocking reagent in TBS-T at room temperature and then washed 3 times with TBS-T (1X−15′; 2X5′ each). Blot 1 was probed with the primary antibody for IDH1 (Cell Signaling #3997) in TBST with 5% BSA (at 1:1000 dilutions) and blot 2 with the rabbit polyclonal antibody for ATP Citrate Lyase in 5% BSA (Cell Signaling #4332) at 1:1000 dilution by incubation overnight at 4 deg C. with shaking. After the overnight incubation with primary antibodies, the blots were washed 3 times with TBS-T (1X−15′; 2X5′ each) and probed with the secondary antibody (antirabbit; 1:10,000 dilution) for 1 h on the orbital tilting shaker at room temperature. After 1 h of incubation with secondary antibodies, the blots were washed 3 times with TBS-T (1X−15′; 2X5′ each) and then incubated with ECF reagent for 5 mins and then each blot scanned with 5100 Fuji Laser scanner at 25 uM resolution, 16 bit, green laser, at 400V and at 500 V.
The samples were processed and run on a 4-12% Bis-Tris Novex NuPAGE gel as described above. The gels were run, transferred and stained essentially as described above.
The Isocitrate dehydrogenase blot was stripped by incubating for 30 minutes with methanol, followed by two 10 minute washes with TBS-T, then 30 minutes of incubation with stripping buffer at 50 deg C., and followed by two washes with 100 ml or more of TBS-T for 30′ each. The blot was scanned in laser scanner to check for complete stripping. The blot was activated with methanol for 5 seconds, washed with water for 5 minutes, and TBST for 15 minutes. The blot was blocked for 1 hour with 5% blocking reagent in TBS-T at room temperature and then washed 3 times with TBS-T (1X−15′; 2X5′ each). This was then probed with the rabbit polyclonal antibody for ATP Citrate Lyase in 5% BSA (Cell Signaling #4332) at 1:1000 dilution overnight at 4 deg C. with shaking. After the overnight incubation with primary antibody for ATP Citrate Lyase, the membrane was washed 3 times with TBS-T (1X−15′; 2X5′ each) and probed with the secondary antibody (antirabbit; 1:10,000 dilution) for 1 h on the orbital tilting shaker at room temperature. After 1 h of incubation with secondary antibodies, the blot was washed 3 times with TBS-T (1X−15′; 2X5′ each) and then incubated with ECF reagent for 5 minutes and then each blot scanned with 5100 Fuji Laser scanner at 25 uM resolution, 16 bit, green laser, at 400V and at 500 V.
In this experiment (western blot experiment 3), and in all of the experiments described below in this Example (i.e., western blot experiments 4 through 9), the cells were additionally treated with either 5 mM glucose (“5G”) or 22 mM glucose (“22G”). The samples derived from the cells were processed and run on a 4-12% Bis-Tris Novex NuPAGE gel as described above. The gels were run, transferred and stained essentially as described above.
The levels of IDH1, ATP citrate lyase and actin levels were determined by probing the blots with primary antibodies for IDH1, ATP citrate lyase and actin, essentially as described above.
Background: In western blotting, separated proteins are transferred to a membrane and probed.

Regarding `COC1=C(OC)C(=O)C(C/C=C(\C)CC/C=C(\C)CC/C=C(\C)CC/C=C(\C)CC/C=C(\C)CC/C=C(\C)CC/C=C(\C)CC/C=C(\C)CC/C=C(\C)CCC=C(C)C)=C(C)C1=O` [Q10, Coenzyme Q10], the “apoptosis array genes (ABL1, AKT1, Bcl2L1 ... TNFSF10 as listed)” value in experiment [1] (100 uM Q10) is “modulated by Q10 treatment”. In addition, the “genes from the apoptosis array whose expression is regulated” value in experiment [1] (100 μM Q10, genes: CASP1, CASP6, TNF, TNFSF10, ABL1, AKT1, BclAF1, Bcl2L1, CASP2, CIDEA, FADD, LTA, TNFSF10A) is given as “A list of genes from the apoptosis array whose expression is regulated”. Also, the ATP Citrate Lysase Normalized Intensity as % of control in experiment [2] (HepG2, 50 uM) is 85 % of control; in experiment [2] (HepG2, 100 uM), 79 % of control; in experiment [2] (PACA2, 50 uM) it was 68 % of control; in experiment [2] (PACA2, 100 uM), 42 % of control. Also, the “expression of ACL” value is recorded as “dose-dependent decrease in the expression of ACL enzymes” in experiment [2] (cancer cells) and “trend towards increased expression of ACL” in experiment [2] (normal cells).
